These results are taken from patent publication US20240239781A1, “1H-PYRAZOLE DERIVATIVES AS SIGMA LIGANDS” (ACONDICIONAMIENTO TARRASENSE, priority 2021, published 2024).

Assay [1] deals with T1, human σ1 receptor (Homo sapiens, UniProt Q99720).
T1 construct: expressed in transfected cells; host or cells: HEK-293
Description: Human σ1 receptor radioligand assay ([3H](+)-pentazocine, transfected HEK-293 membranes). The conditions noted are these: class scale, read-out: Binding σ-1 Ki. The protocol: Transfected HEK-293 membranes (7 μg) were incubated with 5 nM of [^3H](+)-pentazocine in assay buffer containing Tris-HCl 50 mM at pH 8. NBS (non-specific binding) was measured by adding 10 μM haloperidol. The binding of the test compound was measured at either one concentration (% inhibition at 1 or 10 μM) or five different concentrations to determine affinity values (Ki). Plates were incubated at 37° C. for 120 minutes. After the incubation period, the reaction mix was then transferred to MultiScreen HTS, FC plates (Millipore), filtered and plates were washed 3 times with ice-cold 10 mM Tris-HCL (pH7.4). Filters were dried and counted at approximately 40% efficiency in a MicroBeta scintillation counter (Perkin-Elmer) using EcoScint liquid scintillation cocktail.

Assay [2] deals with T2, human σ2/TMEM97 receptor (Homo sapiens, UniProt Q5BJF2).
T2 construct: expressed in transfected cells; host or cells: HEK-293
Description: Binding assay to human σ2/TMEM97 receptor ([3H]-DTG, transfected HEK-293 membranes). The conditions noted are these: class scale, read-out: Binding σ-2 Ki. The protocol: Transfected HEK-293 membranes (15 μg) were incubated with 10 nM [^3H]-1,3-Di-o-tolylguanidine (DTG) in assay buffer containing Tris-HCl 50 mM at pH 8.0. NSB (non-specific binding) was measured by adding 10 μM haloperidol. The binding of the test compound was measured at either one concentration (% inhibition at 1 or 10 μM) or five different concentrations to determine affinity values (Ki). Plates were incubated at 25° C. for 120 minutes. After the incubation period, the reaction mix was transferred to MultiScreen HTS, FC plates (Millipore), filtered and washed 3 times with ice-cold 10 mM Tris-HCL (pH 8.0). Filters were dried and counted at approximately 40% efficiency in a MicroBeta scintillation counter (Perkin-Elmer) using EcoScint liquid scintillation cocktail.

T1 sequence (Q99720 whole entry): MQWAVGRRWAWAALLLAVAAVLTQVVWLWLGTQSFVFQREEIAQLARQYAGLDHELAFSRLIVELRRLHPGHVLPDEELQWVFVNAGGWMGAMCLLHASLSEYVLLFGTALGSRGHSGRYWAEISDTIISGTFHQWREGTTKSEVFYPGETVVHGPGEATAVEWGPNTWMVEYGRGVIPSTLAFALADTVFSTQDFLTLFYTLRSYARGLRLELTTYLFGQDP
T2 sequence (Q5BJF2 whole entry): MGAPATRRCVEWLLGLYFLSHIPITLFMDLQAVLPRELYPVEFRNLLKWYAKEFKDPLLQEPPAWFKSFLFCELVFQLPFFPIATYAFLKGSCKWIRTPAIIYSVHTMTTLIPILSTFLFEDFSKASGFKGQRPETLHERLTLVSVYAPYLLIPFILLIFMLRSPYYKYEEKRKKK

Consider `Cc1cc(-c2nn(C)c(Cl)c2CN2CCC(CNCCC(C)C)C2)no1` (stereo not drawn) [Example 29, N-((1-((5-Chloro-1-methyl-3-(5-methylisoxazol-3-yl)-1H-pyrazol-4-yl)methyl)pyrrolidin-3-yl)methyl)-3-methylbutan-1-amine], for which the inhibition constant Ki fell in the range of 500 to 1000 nM in assay [1] and 100 to 500 nM in assay [2].

On to `Cn1nc(-c2cccnc2)c(CN2CCCCC(NCCC(C)(C)C)C2)c1Cl` (stereo not drawn) [Example 30, 1-((5-Chloro-1-methyl-3-(pyridin-3-yl)-1H-pyrazol-4-yl)methyl)-N-(3,3-dimethylbutyl)azepan-3-amine], for which the values for the inhibitory constant (Ki) in assay [1] and in assay [2] were 100 to 500 nM and > 1000 nM, respectively.

Consider `CC(C)CCNC1CCCCN(Cc2c(-c3cccnc3)nn(C)c2Cl)C1` (stereo not drawn) [Example 31, 1-((5-Chloro-1-methyl-3-(pyridin-3-yl)-1H-pyrazol-4-yl)methyl)-N-isopentylazepan-3-amine], for which the Ki is 500 to 1000 nM in assay [1] and > 1000 nM in assay [2].

With `CC(C)CCNC1CCCCN(Cc2c(-c3nccn3C)nn(C)c2Cl)C1` (stereo not drawn) [Example 32, 1-((5-Chloro-1-methyl-3-(1-methyl-1H-imidazol-2-yl)-1H-pyrazol-4-yl)methyl)-N-isopentylazepan-3-amine], the Ki was > 1000 nM in assay [1] and 100 to 500 nM in assay [2].

In the case of `Cn1nc(-c2ccon2)c(CN2CCCCC(NCCC(C)(C)C)C2)c1Cl` (stereo not drawn) [Example 33, 1-((5-Chloro-3-(isoxazol-3-yl)-1-methyl-1H-pyrazol-4-yl)methyl)-N-(3,3-dimethylbutyl)azepan-3-amine], the Ki in assay [1] and in assay [2] was 100 to 500 nM in each case.

As to `CC(C)CCNC1CCCCN(Cc2c(-c3ccon3)nn(C)c2Cl)C1` (stereo not drawn) [Example 34, 1-((5-Chloro-3-(isoxazol-3-yl)-1-methyl-1H-pyrazol-4-yl)methyl)-N-isopentylazepan-3-amine], the inhibition constant (Ki) in assay [1] was 500 to 1000 nM; in assay [2], 100 to 500 nM.

With `COc1ccc(-c2nn(C)c(Cl)c2CN2CCCCC(NCCC(C)(C)C)C2)nc1` (stereo not drawn) [Example 35, 1-((5-Chloro-3-(5-methoxypyridin-2-yl)-1-methyl-1H-pyrazol-4-yl)methyl)-N-(3,3-dimethylbutyl)azepan-3-amine], the values for the Ki in assay [1] and in assay [2] were 500 to 1000 nM and > 1000 nM, respectively.

For `COc1ccc(-c2nn(C)c(Cl)c2CN2CCCCC(NCCC(C)C)C2)nc1` (stereo not drawn) [Example 36, 1-((5-Chloro-3-(5-methoxypyridin-2-yl)-1-methyl-1H-pyrazol-4-yl)methyl)-N-isopentylazepan-3-amine], the Ki in assay [1] was 500 to 1000 nM; in assay [2], > 1000 nM.

Take `Cc1onc(-c2nn(C)c(Cl)c2CN2CCCCC(NCCC(C)C)C2)c1C` (stereo not drawn) [Example 37, 1-((5-Chloro-3-(4,5-dimethylisoxazol-3-yl)-1-methyl-1H-pyrazol-4-yl)methyl)-N-isopentylazepan-3-amine]: the Ki in assay [1] and in assay [2] was 100 to 500 nM throughout.

Take `Cc1onc(-c2nn(C)c(Cl)c2CN2CCCCC(NCCC(C)(C)C)C2)c1C` (stereo not drawn) [Example 38, 1-((5-Chloro-3-(4,5-dimethylisoxazol-3-yl)-1-methyl-1H-pyrazol-4-yl)methyl)-N-(3,3-dimethylbutyl)azepan-3-amine]: the Ki in assay [1] and in assay [2] was 100 to 500 nM each time.

For `CC(C)CCNC1CCCCN(Cc2c(-c3cccc(O)n3)nn(C)c2Cl)C1` (stereo not drawn) [Example 39, 6-(5-Chloro-4-((3-(isopentylamino)azepan-1-yl)methyl)-1-methyl-1H-pyrazol-3-yl)pyridin-2-ol], the results for the inhibitory constant (Ki) in assay [1] and in assay [2] were 500 to 1000 nM and 100 to 500 nM, respectively.

In the case of `CC(C)CCN[C@H]1CCCCN(Cc2c(-c3noc4c3COCC4)nn(C)c2Cl)C1` [Example 40, (S)-1-((5-Chloro-3-(6,7-dihydro-4H-pyrano[3,4-d]isoxazol-3-yl)-1-methyl-1H-pyrazol-4-yl)methyl)-N-isopentylazepan-3-amine], the Ki in assay [1] and in assay [2] was 100 to 500 nM throughout.

Turning to `Cc1cc(-c2nn(C)c(Cl)c2CN2CCC(CNCCC(C)C)CC2)no1` [Example 41, N-((1-((5-Chloro-1-methyl-3-(5-methylisoxazol-3-yl)-1H-pyrazol-4-yl)methyl)piperidin-4-yl)methyl)-3-methylbutan-1-amine], the inhibitory constant (Ki) in assay [1] and in assay [2] was 100 to 500 nM throughout.

For the molecule `Cc1cc(-c2nn(C)c(Cl)c2CN2CCC(CN(CC(C)C)CC(C)C)C2)no1` (stereo not drawn) [Example 42, N-((1-((5-Chloro-1-methyl-3-(5-methylisoxazol-3-yl)-1H-pyrazol-4-yl)methyl)pyrrolidin-3-yl)methyl)-/-isobutyl-2-methylpropan-1-amine], the results for the inhibition constant Ki in assay [1] and in assay [2] were > 1000 nM and 100 to 500 nM, respectively.

As for `Cc1cc(-c2nn(C)c(Cl)c2CN2CCC(CNCC(C)C)CC2)no1` [Example 43, N-((1-((5-Chloro-1-methyl-3-(5-methylisoxazol-3-yl)-1H-pyrazol-4-yl)methyl)piperidin-4-yl)methyl)-2-methylpropan-1-amine], the Ki in assay [1] and in assay [2] was 500 to 1000 nM each time.

On to `Cc1cc(-c2nn(C)c(Cl)c2CN2CCC(CNCc3ccccc3)C2)no1` (stereo not drawn) [Example 44, N-Benzyl-1-(1-((5-chloro-1-methyl-3-(5-methylisoxazol-3-yl)-1H-pyrazol-4-yl)methyl)pyrrolidin-3-yl)methanamine], for which the Ki in assay [1] and in assay [2] was 500 to 1000 nM throughout.

As to `Cc1cc(-c2nn(C)c(Cl)c2CN2CCC(CNCCc3ccccc3)C2)no1` (stereo not drawn) [Example 45, N-((1-((5-Chloro-1-methyl-3-(5-methylisoxazol-3-yl)-1H-pyrazol-4-yl)methyl)pyrrolidin-3-yl)methyl)-2-phenylethanamine], the inhibitory constant (Ki) in assay [1] and in assay [2] was 100 to 500 nM in each case.

In the case of `CCCN(CCC)CC1CCN(Cc2c(-c3cc(C)on3)nn(C)c2Cl)C1` (stereo not drawn) [Example 46, N-((1-((5-Chloro-1-methyl-3-(5-methylisoxazol-3-yl)-1H-pyrazol-4-yl)methyl)pyrrolidin-3-yl)methyl)-N-propylpropan-1-amine], the inhibitory constant (Ki) is 100 to 500 nM in assay [1] and > 1000 nM in assay [2].

For the molecule `CCCNCC1CCN(Cc2c(-c3cc(C)on3)nn(C)c2Cl)C1` (stereo not drawn) [Example 47, N-((1-((5-Chloro-1-methyl-3-(5-methylisoxazol-3-yl)-1H-pyrazol-4-yl)methyl)pyrrolidin-3-yl)methyl)propan-1-amine], the inhibition constant Ki in assay [1] and in assay [2] was > 1000 nM in each case.

As for `Cc1cc(-c2nn(C)c(Cl)c2CN2CCCC(CNCC(C)C)C2)no1` (stereo not drawn) [Example 48, N-((1-((5-Chloro-1-methyl-3-(5-methylisoxazol-3-yl)-1H-pyrazol-4-yl)methyl)piperidin-3-yl)methyl)-2-methylpropan-1-amine], the results for the inhibitory constant (Ki) in assay [1] and in assay [2] were > 1000 nM and 100 to 500 nM, respectively.

Turning to `Cc1cc(-c2nn(C)c(Cl)c2CN2CCC(CNCC(C)C)C2)no1` (stereo not drawn) [Example 49, N-((1-((5-Chloro-1-methyl-3-(5-methylisoxazol-3-yl)-1H-pyrazol-4-yl)methyl)pyrrolidin-3-yl)methyl)-2-methylpropan-1-amine], the results for the inhibition constant Ki in assay [1] and in assay [2] were 100 to 500 nM and > 1000 nM, respectively.

For `Cc1cc(-c2nn(C)c(Cl)c2CN2CCC3(CC2)CCN(CCC(C)(C)C)C3)no1` [Example 50, 3-(5-Chloro-4-((2-(3,3-dimethylbutyl)-2,8-diazaspiro[4.5]decan-8-yl)methyl)-1-methyl-1H-pyrazol-3-yl)-5-methylisoxazole], the inhibition constant Ki was 100 to 500 nM in assay [1] and < 100 nM in assay [2].

Turning to `Cc1cc(-c2nn(C)c(Cl)c2CN2CC3(CCN(CCC(C)(C)C)C3)C2)no1` [Example 51, 3-(5-Chloro-4-((6-(3,3-dimethylbutyl)-2,6-diazaspiro[3.4]octan-2-yl)methyl)-1-methyl-1H-pyrazol-3-yl)-5-methylisoxazole], the inhibition constant (Ki) in assay [1] and in assay [2] was < 100 nM throughout.

For the molecule `Cc1cc(-c2nn(C)c(Cl)c2CN2CCC3(C2)CN(CCC(C)(C)C)C3)no1` [Example 52, 3-(5-Chloro-4-((2-(3,3-dimethylbutyl)-2,6-diazaspiro[3.4]octan-6-yl)methyl)-1-methyl-1H-pyrazol-3-yl)-5-methylisoxazole], the Ki in assay [1] and in assay [2] was < 100 nM throughout.

`Cc1cc(-c2nn(C)c(Cl)c2CN2CCC3(CCN(CCC(C)(C)C)CC3)CC2)no1` [Example 53, 3-(5-Chloro-4-((9-(3,3-dimethylbutyl)-3,9-diazaspiro[5.5]undecan-3-yl)methyl)-1-methyl-1H-pyrazol-3-yl)-5-methylisoxazole]: the Ki in assay [1] is 100 to 500 nM; in assay [2], < 100 nM.

As for `Cc1cc(-c2nn(C)c(Cl)c2CN2CCC3(CCN(CCC(C)(C)C)C3)C2)no1` (stereo not drawn) [Example 54, 3-(5-Chloro-4-((7-(3,3-dimethylbutyl)-2,7-diazaspiro[4.4]nonan-2-yl)methyl)-1-methyl-1H-pyrazol-3-yl)-5-methylisoxazole], the Ki in assay [1] and in assay [2] was < 100 nM in each case.

Take `Cc1cc(-c2nn(C)c(Cl)c2CN2CCCC(CNCc3ccccc3)C2)no1` (stereo not drawn) [Example 55, N-Benzyl-1-(1-((5-chloro-1-methyl-3-(5-methylisoxazol-3-yl)-1H-pyrazol-4-yl)methyl)piperidin-3-yl)methanamine]: the inhibition constant (Ki) in assay [1] is > 1000 nM; in assay [2] it was 100 to 500 nM.

The term Ki denotes the equilibrium dissociation constant of an inhibitor or competing ligand from its target.
